Assay results: ChEMBL document CHEMBL5137068, “Discovery of Hexahydrofuro[3,2-b]furans as New Kinase-Selective and Orally Bioavailable JAK3 Inhibitors for the Treatment of Leukemia Harboring a JAK3 Activating Mutant” (J Med Chem, 2022)

How the values were obtained:
BaF3 [1] = assay: cells; conditions: Mus musculus, BaF3, 72 h
BaF3 [2] = assay: cells; conditions: Mus musculus, BaF3, 72 h; remark: listed apart in the source
BaF3 [3] = assay: cells; conditions: Mus musculus, BaF3, 72 h; remark: listed apart in the source
U-937 = assay: cells; conditions: Homo sapiens, U-937, 72 h
BaF3 [4] = assay: cells; conditions: Mus musculus, BaF3, 72 h; remark: listed apart in the source
Description: Antiproliferative activity against mouse BaF3 parent cell measured after 72 hrs by CCK-8 assay

[5] = molecular target: T1, Tyrosine-protein kinase JAK3 (Homo sapiens, UniProt P52333)
T1 sequence (P52333 whole entry): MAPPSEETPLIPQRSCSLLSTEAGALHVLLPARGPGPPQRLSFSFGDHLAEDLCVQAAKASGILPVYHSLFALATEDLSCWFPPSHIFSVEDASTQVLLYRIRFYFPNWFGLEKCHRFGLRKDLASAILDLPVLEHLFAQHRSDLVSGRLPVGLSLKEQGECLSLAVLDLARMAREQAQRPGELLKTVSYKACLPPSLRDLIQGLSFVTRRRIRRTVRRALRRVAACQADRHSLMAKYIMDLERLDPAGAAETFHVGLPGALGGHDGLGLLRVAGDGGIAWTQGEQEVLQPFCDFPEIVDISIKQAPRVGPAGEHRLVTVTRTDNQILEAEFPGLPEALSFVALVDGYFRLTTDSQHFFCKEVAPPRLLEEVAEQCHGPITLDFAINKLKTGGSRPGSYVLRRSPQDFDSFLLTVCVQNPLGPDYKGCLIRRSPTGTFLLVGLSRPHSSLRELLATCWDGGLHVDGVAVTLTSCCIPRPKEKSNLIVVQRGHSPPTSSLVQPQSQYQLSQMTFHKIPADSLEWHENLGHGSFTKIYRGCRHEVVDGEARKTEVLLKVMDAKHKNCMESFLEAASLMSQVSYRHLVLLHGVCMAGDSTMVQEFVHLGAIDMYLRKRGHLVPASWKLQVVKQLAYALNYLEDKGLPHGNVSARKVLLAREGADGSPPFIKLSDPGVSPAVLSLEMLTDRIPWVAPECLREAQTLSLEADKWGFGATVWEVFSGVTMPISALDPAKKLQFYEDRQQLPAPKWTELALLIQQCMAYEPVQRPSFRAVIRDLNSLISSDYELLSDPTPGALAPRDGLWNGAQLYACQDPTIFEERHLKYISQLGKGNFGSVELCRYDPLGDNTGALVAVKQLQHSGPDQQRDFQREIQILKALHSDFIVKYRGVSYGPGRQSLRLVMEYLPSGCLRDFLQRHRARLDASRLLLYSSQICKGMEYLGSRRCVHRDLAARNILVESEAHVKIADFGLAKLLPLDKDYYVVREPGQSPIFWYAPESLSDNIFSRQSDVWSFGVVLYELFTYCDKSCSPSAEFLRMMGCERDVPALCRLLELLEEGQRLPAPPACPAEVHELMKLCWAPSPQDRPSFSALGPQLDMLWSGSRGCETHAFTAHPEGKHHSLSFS
Description: Inhibition of GST tagged recombinant human JAK3 expressed in baculovirus infection system by FRET assay

[6] = molecular target: Non-receptor tyrosine-protein kinase TYK2 (Homo sapiens, UniProt P29597)
Description: Inhibition of human TYK2 by FRET assay

[7] = molecular target: Tyrosine-protein kinase JAK1 (Homo sapiens, UniProt P23458)
[8] = molecular target: Tyrosine-protein kinase JAK2 (Homo sapiens, UniProt O60674)
Description: Inhibition of GST tagged recombinant human JAK2 expressed in baculovirus infection system by FRET assay

[9] = Cmax in 12 hr fasted SPF Sprague-Dawley rat at 5 mg/kg, iv upon 2 hrs fasting post-administration measured upto 24 hrs; assay type: ADME, organism-based; parameters: dose 5 mg/kg, time < 24 hrs, route iv; conditions: in vivo
[10] = AUC(0 to infinity) in 12 hr fasted SPF Sprague-Dawley rat at 15 mg/kg, po upon 2 hrs fasting post-administration upto 24 hrs; assay type: ADME, organism-based; parameters: dose 15 mg/kg, time < 24 hrs, route po; conditions: in vivo
[11] = Half life in 12 hr fasted SPF Sprague-Dawley rat at 5 mg/kg, iv upon 2 hrs fasting post-administration measured upto 24 hrs; assay type: ADME, organism-based; conditions: in vivo
[12] = Cmax in 12 hr fasted SPF Sprague-Dawley rat at 15 mg/kg, po upon 2 hrs fasting post-administration measured upto 24 hrs; assay type: ADME, organism-based; parameters: time < 24 hrs, dose 15 mg/kg, route po; conditions: in vivo
[13] = Clearance in 12 hr fasted SPF Sprague-Dawley rat at 5 mg/kg, iv upon 2 hrs fasting post-administration measured upto 24 hrs; assay type: ADME, organism-based; conditions: in vivo
[14] = Metabolic stability in rat liver microsome assessed as half life preincubated for 5 mins followed by NADPH addition measured upto 45 mins by LC/MS analysis; assay type: ADME; conditions: liver microsomes, time < 50 min
[15] = Half life in 12 hr fasted SPF Sprague-Dawley rat at 15 mg/kg, po upon 2 hrs fasting post-administration measured upto 24 hrs; assay type: ADME, organism-based; conditions: in vivo
[16] = Oral bioavailability in 12 hr fasted SPF Sprague-Dawley rat at 15 mg/kg upon 2 hrs fasting post-administration measured upto 24 hrs; assay type: ADME, organism-based; conditions: in vivo
[17] = AUC(0 to infinity) in 12 hr fasted SPF Sprague-Dawley rat at 5 mg/kg, iv upon 2 hrs fasting post-administration measured upto 24 hrs; assay type: ADME, organism-based; parameters: dose 5 mg/kg, time < 24 hrs, route iv; conditions: in vivo

Chain of Non-receptor tyrosine-protein kinase TYK2 (P29597 whole entry): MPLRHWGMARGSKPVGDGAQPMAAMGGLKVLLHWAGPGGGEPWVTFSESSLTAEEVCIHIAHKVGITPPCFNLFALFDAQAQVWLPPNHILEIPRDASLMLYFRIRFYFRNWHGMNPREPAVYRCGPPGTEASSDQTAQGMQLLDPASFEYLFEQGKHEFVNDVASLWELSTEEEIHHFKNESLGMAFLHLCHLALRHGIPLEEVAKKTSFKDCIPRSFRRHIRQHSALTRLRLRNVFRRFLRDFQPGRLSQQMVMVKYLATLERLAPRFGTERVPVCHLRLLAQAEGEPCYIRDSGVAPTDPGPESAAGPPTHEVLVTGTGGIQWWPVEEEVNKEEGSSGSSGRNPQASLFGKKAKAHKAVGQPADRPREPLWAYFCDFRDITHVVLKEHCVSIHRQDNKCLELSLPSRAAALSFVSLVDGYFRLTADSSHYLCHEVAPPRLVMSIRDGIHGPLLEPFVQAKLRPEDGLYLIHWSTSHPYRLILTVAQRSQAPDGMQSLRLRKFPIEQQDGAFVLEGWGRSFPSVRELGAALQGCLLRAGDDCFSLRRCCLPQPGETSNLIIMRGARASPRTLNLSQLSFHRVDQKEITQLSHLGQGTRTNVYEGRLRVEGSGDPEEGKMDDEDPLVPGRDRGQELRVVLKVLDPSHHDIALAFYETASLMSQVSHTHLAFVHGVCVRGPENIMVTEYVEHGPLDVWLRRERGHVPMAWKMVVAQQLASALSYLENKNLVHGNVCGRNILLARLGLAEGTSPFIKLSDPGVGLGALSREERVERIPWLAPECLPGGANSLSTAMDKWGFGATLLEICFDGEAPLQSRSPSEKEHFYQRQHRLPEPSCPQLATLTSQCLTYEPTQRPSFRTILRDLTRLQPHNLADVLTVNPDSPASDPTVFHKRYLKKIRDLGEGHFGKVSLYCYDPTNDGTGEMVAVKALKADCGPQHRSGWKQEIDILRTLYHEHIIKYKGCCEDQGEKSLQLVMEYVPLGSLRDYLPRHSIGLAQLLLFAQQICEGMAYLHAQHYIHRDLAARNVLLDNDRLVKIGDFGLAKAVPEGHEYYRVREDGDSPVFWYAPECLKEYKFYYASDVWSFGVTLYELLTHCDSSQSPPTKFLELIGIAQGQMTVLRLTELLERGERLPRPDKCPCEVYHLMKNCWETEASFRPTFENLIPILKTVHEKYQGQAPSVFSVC
Chain of Tyrosine-protein kinase JAK1 (P23458 whole entry): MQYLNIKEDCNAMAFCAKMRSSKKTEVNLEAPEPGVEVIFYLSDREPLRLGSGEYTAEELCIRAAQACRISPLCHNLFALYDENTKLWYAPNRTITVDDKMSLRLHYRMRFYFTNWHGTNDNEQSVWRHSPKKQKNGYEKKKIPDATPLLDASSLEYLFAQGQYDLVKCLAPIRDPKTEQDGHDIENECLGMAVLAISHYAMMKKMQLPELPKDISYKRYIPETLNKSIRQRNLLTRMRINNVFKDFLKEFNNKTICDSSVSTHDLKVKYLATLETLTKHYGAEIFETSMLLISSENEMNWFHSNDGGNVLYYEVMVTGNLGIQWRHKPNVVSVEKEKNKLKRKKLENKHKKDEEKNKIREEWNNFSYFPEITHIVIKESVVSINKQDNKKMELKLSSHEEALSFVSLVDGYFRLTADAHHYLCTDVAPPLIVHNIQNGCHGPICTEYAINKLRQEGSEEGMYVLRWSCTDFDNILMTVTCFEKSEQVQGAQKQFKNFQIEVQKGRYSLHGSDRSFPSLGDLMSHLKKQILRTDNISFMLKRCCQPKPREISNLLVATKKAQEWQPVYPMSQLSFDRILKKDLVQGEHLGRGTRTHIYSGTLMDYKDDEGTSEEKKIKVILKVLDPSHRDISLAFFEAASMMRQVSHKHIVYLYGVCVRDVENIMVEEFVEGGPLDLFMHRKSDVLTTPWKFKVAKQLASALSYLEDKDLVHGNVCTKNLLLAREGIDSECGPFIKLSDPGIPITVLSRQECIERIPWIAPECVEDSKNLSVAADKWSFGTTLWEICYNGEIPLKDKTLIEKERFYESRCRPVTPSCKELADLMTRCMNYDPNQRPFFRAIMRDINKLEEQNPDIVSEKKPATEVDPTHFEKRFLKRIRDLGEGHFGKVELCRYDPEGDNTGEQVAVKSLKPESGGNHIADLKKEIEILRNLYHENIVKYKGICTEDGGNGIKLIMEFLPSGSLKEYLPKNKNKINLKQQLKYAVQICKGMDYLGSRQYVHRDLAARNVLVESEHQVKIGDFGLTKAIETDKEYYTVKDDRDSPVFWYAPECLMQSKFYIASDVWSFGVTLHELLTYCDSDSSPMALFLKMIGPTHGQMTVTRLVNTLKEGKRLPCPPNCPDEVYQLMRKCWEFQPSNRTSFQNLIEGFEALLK
Chain of Tyrosine-protein kinase JAK2 (O60674 whole entry): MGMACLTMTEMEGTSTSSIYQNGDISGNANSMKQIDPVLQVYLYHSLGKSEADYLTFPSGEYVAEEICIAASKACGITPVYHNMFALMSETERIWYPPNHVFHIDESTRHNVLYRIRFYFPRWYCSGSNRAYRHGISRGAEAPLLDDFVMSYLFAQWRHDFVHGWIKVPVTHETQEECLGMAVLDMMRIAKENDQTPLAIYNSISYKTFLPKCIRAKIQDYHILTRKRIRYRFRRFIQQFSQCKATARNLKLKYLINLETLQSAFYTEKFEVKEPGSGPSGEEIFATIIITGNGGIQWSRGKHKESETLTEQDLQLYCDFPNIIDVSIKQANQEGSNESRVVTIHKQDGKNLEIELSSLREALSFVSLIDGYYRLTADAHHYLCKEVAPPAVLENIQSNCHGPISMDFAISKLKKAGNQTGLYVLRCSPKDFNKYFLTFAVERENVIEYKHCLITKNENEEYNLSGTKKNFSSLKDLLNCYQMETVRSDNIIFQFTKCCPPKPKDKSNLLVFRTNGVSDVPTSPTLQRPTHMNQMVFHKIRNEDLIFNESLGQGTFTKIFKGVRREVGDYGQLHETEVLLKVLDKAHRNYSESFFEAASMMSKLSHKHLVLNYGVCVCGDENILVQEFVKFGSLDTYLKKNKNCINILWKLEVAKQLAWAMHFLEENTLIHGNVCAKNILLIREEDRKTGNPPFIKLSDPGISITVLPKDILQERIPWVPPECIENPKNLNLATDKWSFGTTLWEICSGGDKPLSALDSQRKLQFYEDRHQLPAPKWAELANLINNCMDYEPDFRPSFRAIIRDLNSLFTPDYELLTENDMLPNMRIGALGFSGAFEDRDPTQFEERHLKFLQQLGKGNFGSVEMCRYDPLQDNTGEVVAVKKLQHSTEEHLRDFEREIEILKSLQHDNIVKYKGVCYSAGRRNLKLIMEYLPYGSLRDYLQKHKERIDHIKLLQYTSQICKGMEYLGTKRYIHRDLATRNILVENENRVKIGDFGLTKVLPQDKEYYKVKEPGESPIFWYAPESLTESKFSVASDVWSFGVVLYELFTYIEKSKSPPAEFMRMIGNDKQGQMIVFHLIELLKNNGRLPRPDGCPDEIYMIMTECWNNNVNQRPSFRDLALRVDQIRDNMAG

| SMILES | IC50 (BaF3 [1]) [nM] | IC50 (BaF3 [2]) [nM] | IC50 (BaF3 [3]) [nM] | IC50 (U-937) [nM] | IC50 (BaF3 [4]) [nM] | IC50 [5] [nM] | further results |
| --- | --- | --- | --- | --- | --- | --- | --- |
| C=CC(=O)Nc1cc(Nc2ncc(Cl)c(O[C@@H]3CO[C@H]4[C@@H]3OC[C@H]4O)n2)ccc1N1C[C@H]2C[C@@H]1CN2C | – | – | – | – | – | 1.5 | – |
| C=CC(=O)Nc1cc(Nc2ncc(Cl)c(O[C@@H]3CO[C@H]4[C@@H]3OCC4(F)F)n2)ccc1N(C)CCN(C)C | 56.4 | 188 | 180 | 33.8 | 214 | 1.2 | – |
| C=CC(=O)N1C[C@H](Nc2ncnc3[nH]ccc23)CC[C@@H]1C [RITLECITINIB] | 28.1 | > 10000 | > 10000 | 19.5 | > 10000 | – | – |
| C=CC(=O)Nc1cc(Nc2ncc(Cl)c(O[C@@H]3CO[C@H]4[C@@H]3OC[C@H]4O)n2)ccc1N1CCC(N2CCN(C)CC2)CC1 | 20.1 | 46.3 | 122 | 35.9 | 40.4 | 1.8 | IC50 [6]: 369 nM; IC50 [7]: 1540 nM; IC50 [8]: 1030 nM |
| C=CC(=O)Nc1cc(Nc2ncc(Cl)c(O[C@@H]3CO[C@H]4[C@@H]3OC[C@H]4O)n2)ccc1N1CCC(N(C)C)C1 (stereo partly drawn) | – | – | – | – | – | 1.9 | – |
| C=CC(=O)Nc1cc(Nc2ncc(Cl)c(O[C@@H]3CO[C@H]4[C@@H]3OC[C@@H]4F)n2)ccc1N(C)CCN(C)C | 88.6 | 418 | 435 | 40.7 | 476 | – | – |
| C=CC(=O)Nc1cc(Nc2ncc(Cl)c(O[C@@H]3CO[C@H]4[C@@H]3OC[C@H]4O)n2)ccc1N1CCOCC1 | – | – | – | – | – | 1.6 | – |
| CN1CCN(C2CCN(c3ccc(Nc4ncc(Cl)c(O[C@@H]5CO[C@H]6[C@@H]5OC[C@H]6O)n4)cc3Cl)CC2)CC1 | 1650 | > 10000 | > 10000 | – | 1380 | – | – |
| C=CC(=O)Nc1cc(Nc2ncc(Cl)c(O[C@@H]3CO[C@H]4[C@@H]3OC[C@H]4F)n2)ccc1N(C)CCN(C)C | 46.4 | 416 | 461 | 50.3 | 519 | 1.3 | – |

Second part, led by results:

| IC50 (BaF3 [1]) [nM] | IC50 (BaF3 [2]) [nM] | IC50 (BaF3 [3]) [nM] | IC50 (U-937) [nM] | IC50 (BaF3 [4]) [nM] | IC50 [5] [nM] | SMILES | further results |
| --- | --- | --- | --- | --- | --- | --- | --- |
| 108 | 137 | 313 | 30 | 161 | – | C=CC(=O)Nc1cc(Nc2ncc(Cl)c(O[C@@H]3CO[C@H]4[C@@H]3OC[C@H]4OCC)n2)ccc1N(C)CCN(C)C | – |
| 179 | 166 | 336 | 44 | 205 | 1.3 | C=CC(=O)Nc1cc(Nc2ncc(Cl)c(O[C@@H]3CO[C@H]4[C@@H]3OC[C@H]4OC(C)C)n2)ccc1N(C)CCN(C)C | – |
| – | – | – | – | – | 1.2 | C=CC(=O)Nc1cccc(Nc2ncc(Cl)c(O[C@@H]3CO[C@H]4[C@@H]3OC[C@H]4O)n2)c1 | IC50 [6]: 94 nM; IC50 [7]: 556 nM; IC50 [8]: 1400 nM |
| 24.9 | 149 | 133 | 15.2 | 102 | – | C=CC(=O)Nc1cc(Nc2ncc(Cl)c(O[C@@H]3CO[C@H]4[C@@H]3OC[C@H]4O)n2)ccc1N(C)CCN(C)C | Cmax [9]: 440 ng/mL; AUC(0-inf) [10]: 105 ng·h/mL; half-life [11]: 0.8 h; Cmax [12]: 79.1 ng/mL; CL [13]: 299.15%; half-life at […] [14]: 2 h; half-life [15]: 1.02 h; bioavailability [16]: 12.4%; AUC(0-inf) [17]: 280 ng·h/mL |
| – | – | – | – | – | 1.7 | C#CCCN(C)CCN(C)c1ccc(Nc2ncc(Cl)c(O[C@@H]3CO[C@H]4[C@@H]3OC[C@H]4OC)n2)cc1NC(=O)C=C | – |
